Source: PMC12586182 (Frontiers in Oncology, 2025)

How the values were obtained:
Assay in all cases: Cell viability assay (ATPlite)
Assay type in all cases: cell-based
769-P = details: Homo sapiens; 769-P cell line, 72 hours incubation
In short: (§1)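 Cells grew 24 h, then received 9-point √10-fold compound series in duplicate (0.4% DMSO final) for 72 h. ATP content was read by ATPlite luminescence and normalized to vehicle controls as % viability. IC50 came from a four-parameter logistic fit; curves with F-value above 1.5 were invalidated, with IC50 then set at the top concentration.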

HCT 116 = details: Homo sapiens; HCT 116 cell line, 72 hours incubation
In short: as §1

NOMO-1 = details: Homo sapiens; NOMO-1 cell line, 72 hours incubation
In short: as §1

MG-63 = details: Homo sapiens; MG-63 cell line, 72 hours incubation
In short: as §1

AP-1060 = details: Homo sapiens; AP-1060 cell line, 72 hours incubation
In short: as §1

SW1573 = details: Homo sapiens; SW1573 cell line, 72 hours incubation
In short: as §1

SNU-C2B = details: Homo sapiens; SNU-C2B cell line, 72 hours incubation
In short: as §1

MOLM-13 = details: Homo sapiens; MOLM-13 cell line, 72 hours incubation
In short: as §1

SW780 = details: Homo sapiens; SW780 cell line, 72 hours incubation
In short: as §1

Hs 578T = details: Homo sapiens; Hs 578T cell line, 72 hours incubation
In short: as §1

SW620 = details: Homo sapiens, SW-620; SW620 cell line, 72 hours incubation
In short: as §1

U2OS = details: Homo sapiens; U2OS cell line, 72 hours incubation
In short: as §1

BT-549 = details: Homo sapiens; BT-549 cell line, 72 hours incubation
In short: as §1

MDA-MB-453 = details: Homo sapiens; MDA-MB-453 cell line, 72 hours incubation
In short: as §1

PC-3 = details: Homo sapiens; PC-3 cell line, 72 hours incubation
In short: as §1

A-172 = details: Homo sapiens; A-172 cell line, 72 hours incubation
In short: as §1

JAR = details: Homo sapiens; JAR cell line, 72 hours incubation
In short: as §1

L-82 = details: Homo sapiens; L-82 cell line, 72 hours incubation
In short: as §1

THP-1 = details: Homo sapiens; THP-1 cell line, 72 hours incubation
In short: as §1

DLD-1 = details: Homo sapiens; DLD-1 cell line, 72 hours incubation
In short: as §1

SK-N-MC = details: Homo sapiens; SK-N-MC cell line, 72 hours incubation
In short: as §1

SW48 = details: Homo sapiens; SW48 cell line, 72 hours incubation
In short: as §1

T98G = details: Homo sapiens; T98G cell line, 72 hours incubation
In short: as §1

Hep-G2 = details: Homo sapiens, HepG2; Hep-G2 cell line, 72 hours incubation
In short: as §1

A-427 = details: Homo sapiens; A-427 cell line, 72 hours incubation
In short: as §1

MCF-7 = details: Homo sapiens, MCF7; MCF-7 cell line, 72 hours incubation
In short: as §1

CCRF-CEM = details: Homo sapiens; CCRF-CEM cell line, 72 hours incubation
In short: as §1

RKO = details: Homo sapiens; RKO cell line, 72 hours incubation
In short: as §1

U-87MG ATCC = details: Homo sapiens; U-87MG ATCC cell line, 72 hours incubation
In short: as §1

SR = details: Homo sapiens; SR cell line, 72 hours incubation
In short: as §1

SW948 = details: Homo sapiens; SW948 cell line, 72 hours incubation
In short: as §1

HT = details: Homo sapiens; HT cell line, 72 hours incubation
In short: as §1

SMILES: O=C(c1ccc(Oc2ccccc2)cc1Cl)c1c[nH]c2ncnc(N[C@@H]3CC[C@@H](CO)OC3)c12 [nemtabrutinib]
- IC50 (769-P): 4.01 µM
- IC50 (HCT 116): 1.65 µM
- IC50 (NOMO-1): 4.78 µM
- IC50 (MG-63): 5.82 µM
- IC50 (AP-1060): 0.736 µM
- IC50 (SW1573): 6.3 µM
- IC50 (SNU-C2B): 2.92 µM
- IC50 (MOLM-13): 1 µM
- IC50 (SW780): 2.79 µM
- IC50 (Hs 578T): 11.4 µM
- IC50 (SW620): 2.45 µM
- IC50 (U2OS): 2.67 µM
- IC50 (BT-549): 8.07 µM
- IC50 (MDA-MB-453): 5.32 µM
- IC50 (PC-3): 26.8 µM
- IC50 (A-172): 10.6 µM
- IC50 (JAR): 18.1 µM
- IC50 (L-82): 14 µM
- IC50 (THP-1): 1.55 µM
- IC50 (DLD-1): 4.6 µM
- IC50 (SK-N-MC): 7.4 µM
- IC50 (SW48): 0.445 µM
- IC50 (T98G): 4.52 µM
- IC50 (Hep-G2): 0.979 µM
- IC50 (A-427): 1.24 µM
- IC50 (MCF-7): 12.1 µM
- IC50 (CCRF-CEM): 13.7 µM
- IC50 (RKO): 1.22 µM
- IC50 (U-87MG ATCC): 12 µM
- IC50 (SR): 9.15 µM
- IC50 (SW948): 3.57 µM
- IC50 (HT): > 31.6 µM
